Experimental data taken from patent publication US20150265630A1, “6-Substituted Estradiol Derivatives for the Treatment of Alzheimer's Disease” (Endece LLC, priority 2014, published 2015).

Tests used:
Type in all cases: cell-based
[1] = test system: Apolipoprotein C2 (ApoC2); assay: Expression profiling (Agilent whole human genome microarray), ApoC2 mRNA in human tumor cell lines; conditions: for Gene expression value, Apolipoprotein C2 (ApoC2), treated vs untreated: 50 μM, 24 hours
Description: (§1) The study includes three human tumor cell lines: A549, Panc-1, and SK-OV-3. The lines are each grown in two flasks cultured to roughly 40% confluence. One of the flasks is treated by addition of compound to the culture media at a various concentrations, i.e. 10 μM, 20 μM 50 μM, or 100 μM. The other, mock treated, flask is treated only with the vehicle used to solubilize and deliver the drug. RNA extracted from the pairs of treated and untreated samples is subjected to microarray analysis on Agilent Whole Human Genome Microarrays (G4112F). Each analysis reports the difference in abundance of messenger RNAs for each of the 41,000 specific mRNA detectors on the array. This direct comparison of the treated versus untreated samples for each cell line provides extremely sensitive detection of changes in mRNA abundance resulting from the drug treatment. As each cell line comparison is self-normalized, the results can be compared across the samples with high confidence.
(§2) Three human tumor cell lines, A549, Panc-1, and SK-OV-3, are each grown in two flasks cultured to roughly 40% confluence. One of the flasks is treated by addition of compound to the culture media at concentrations of 10 μM, 50 μM and 100 μM. The other, mock treated, flask is treated only with the vehicle used to solubilize and deliver the drug. All flasks are cultured for a further 24 hours, and then the cells are scraped free and washed in ice-cold PBS, then collected by centrifugation. The harvested cells are immediately frozen, and stored at −80° C. or colder.
(§3) Total RNA is prepared from the frozen tissue samples using Trizol-based cell lysis followed by 65° C. hot phenol extraction and RNeasy chromatography purification. The purified RNA samples are analyzed spectrophotometrically. The concentration of RNA is determined by measuring the absorbance at 260 nm (A260). Given an absorbance of 1 unit at 260 nm corresponds to […] of RNA per ml when measured at pH 11.
(§4) All RNAs are labeled using 1 microgram of RNA as input to an Agilent Low Input Labeling reaction.
(§5) Test RNA is labeled with Cy5 (650 nm emitter) and reference RNA is labeled with Cy3 (550 nm emitter) nucleotides. Labeling, hybridizations and subsequent washings are carried out on Agilent H1Av2 human expression chips. The resulting hybridized chips are scanned on an Agilent microarray scanner, and intensity information for each detector spot is extracted from the scanned image using Agilent feature extraction software. […]
(§6) After the ratios have been calculated for the normalized data, the various control and duplicate samples are analyzed to build a model of how reproducible the results are, and how this reproducibility is varies depending on signal strength and noise. […]

[2] = test system: Lipoprotein Lipase mRNA (LPL); assay: Expression profiling (Agilent whole human genome microarray), LPL mRNA in human tumor cell lines; conditions: for Gene expression value, Lipoprotein Lipase mRNA (LPL), treated vs untreated: 50 μM, 24 hours
Description: as §1, §2, §3, §4, §5, §6

[3] = test system: Apolipoprotein C3 (ApoC3); assay: Expression profiling (Agilent whole human genome microarray), ApoC3 mRNA in human tumor cell lines; conditions: for Gene expression value, Apolipoprotein C3 (ApoC3), treated vs untreated: 50 μM, 24 hours
Description: as §1, §2, §3, §4, §5, §6

[4] = human tumor cell lines SKOV-3, A549 and Panc-1, summary of Table 1

Compound: COCCCCCC[C@@H]1C[C@@H]2[C@H](CC[C@]3(C)C(O)CC[C@@H]23)c2ccc(O)cc21 (stereo partly drawn) [Compound 21, (6R,8R,9S,13S,14S)-6-(6-methoxyhexyl)-13-methyl-7,8,9,11,12,13,14,15,16,17-decahydro-6H-cyclopenta[a]phenanthrene-3,17-diol]
- Gene expression value, Apolipoprotein C2 (ApoC2), treated vs untreated ([1]; A549 cells): 7.21 log2
- Gene expression value, Apolipoprotein C2 (ApoC2), treated vs untreated ([1]; Panc-1 cells): 6.91 log2
- Gene expression value, Apolipoprotein C2 (ApoC2), treated vs untreated ([1]; SKOV-3 cells): 3.89 log2
- Regulation of the ApoC2 gene (in words) [1, 4]: up-regulate
- Gene expression value, Lipoprotein Lipase mRNA (LPL), treated vs untreated ([2]; A549 cells, p = 0.0018): 2.95 log2
- Gene expression value, Lipoprotein Lipase mRNA (LPL), treated vs untreated ([2]; Panc-1 cells): 3.90 log2
- Gene expression value, Lipoprotein Lipase mRNA (LPL), treated vs untreated ([2]; SKOV-3 cells, p = 0.008): 2.77 log2
- Regulation of the LPL gene (in words) [2, 4]: up-regulate
- Gene expression value, Apolipoprotein C3 (ApoC3), treated vs untreated ([3]; A549 cells): 0 log2
- Gene expression value, Apolipoprotein C3 (ApoC3), treated vs untreated ([3]; Panc-1 cells): 0 log2
- Gene expression value, Apolipoprotein C3 (ApoC3), treated vs untreated ([3]; SKOV-3 cells): 0 log2
- Regulation of the ApoC3 gene (in words) [3, 4]: but not the ApoC3 gene
